Patent publication US20240315993A1, “ANTIPARASITIC COMPOUNDS” (Intervet Inc., priority 2021, published 2024)

How the values were obtained:
[1] = system: Rhipicephalus appendiculatus; test: Cattle - efficacy against multi-host ticks (Rhipicephalus appendiculatus); type: in vivo; conditions: for effective in treating existing tick infestations: 5 mg/kg, both administration routes (topical, subcutaneous)
Description: Cattle were treated subcutaneously or topically (pour-on) at a dose of 5 mg/kg bodyweight of a test compound (Day 0). As subcutaneous formulation NMP 60%/PEG300 40% was used, and as pour-on formulation DMA 92%/DEET 8% was used. Cattle of the negative control group received only the formulation excipients of both formulations (SC, pour-on).
Cattle were locally infested with 30 to 40 unfed adult ticks each of Rhipicephalus appendiculatus and Dermacenter variabilis (for both species sex ratio 1:1), by placing the ticks in an ear sleeve (R. appendiculatus) or a stockinet patch attached to the body side (D. variabilis) once before treatment, and at different time points after treatment. Free (i.e., non-attached ticks) were removed from ear sleeves/stockinet patches two days after each infestation and were excluded from the efficacy calculation.
Compounds with efficacy ≥80 percent were found active.

[2] = system: Fly larvae I (Lucilia cuprina); test: Fly larvae contact/feeding assay; conditions: 48 h, read-out: Inhibition of fly larvae development
Description: Fly larvae I (Lucilia cuprina) were grown in medium spiked with declining concentrations of a test compound (dissolved in a DMSO-emulsifier-deionized water mixture). Inhibition of fly larvae development (%) was assessed after approximately 48 hours of continuous exposure. The vitality of used parasites was confirmed in negative control groups (i.e., an untreated control and a solvent control).

[3] = system: larvae of Rhipicephalus microplus isolates with known resistance profiles; test: Tick larvae resistance assay (larval immersion test, LIT)
Description: A tick resistance assay (i.e., larval immersion test, LIT) was carried out using larvae of several Rhipicephalus microplus isolates with known resistance profiles (i.e.: fully susceptible; resistant to dieldrin, coumaphos, DDT, chlorpyriphos, flumethrin, cypermethrin, amitraz, fluazuron).
Tick larvae (Rhipicephalus microplus) were immersed for approximately 3 minutes in test compound solution. Tick mortality was assessed approximately 24 hours after contact exposure. The vitality of used parasites was confirmed in negative control groups (i.e., an untreated control and a solvent control).

[4] = system: Rhipicephalus microplus tick larvae; test: Tick larvae contact assay; conditions: read-out: Tick inhibition (% of damage+dead ticks)
Description: Tick larvae (Rhipicephalus microplus) were immersed for approximately 3 minutes in declining concentrations of a test compound (dissolved in a DMSO-emulsifier-deionized water mixture). Tick inhibition (% of damage+dead ticks per test concentration) was assessed approximately 24 hours after contact exposure. The vitality of used parasites was confirmed in negative control groups (i.e. an untreated control and a solvent control).

[5] = system: Adult fleas (Ctenocephalides felis); test: Flea contact assay; conditions: 48 h, read-out: flea inhibition (% of dead+damaged fleas)
Description: (§1) Adult fleas (Ctenocephalides felis) were exposed to filter paper impregnated with declining concentrations of a test compound (dissolved in a DMSO-emulsifier-deionized water mixture). After approximately 48 hours of continuous contact exposure, flea inhibition (% of dead+damaged fleas per test concentration) was assessed. The vitality of used parasites was confirmed in negative control groups (i.e., an untreated control and a solvent control).

[6] = system: Adult fleas (Ctenocephalides felis); test: Flea feeding assay; conditions: 48 h, read-out: flea inhibition (% of dead+damaged fleas)
Description: as §1, with “felis) of defined age” for “felis)”, “fed on artificial membranes with blood spiked” for “exposed to filter paper impregnated”, “DMSO-emulsifier-blood” for “DMSO-emulsifier-deionized water”, “feeding,” for “contact exposure,”, “(i.e., %” for “(%”

Lepeophtheirus salmonis [7] = test: Salmon - in vivo efficacy against sea lice using gavage administration; conditions: 5 mg/kg once by gavage, counted around day 28
Procedure, shortened: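 Salmon given a single oral gavage of 5 mg/kg in 5% DMSO/95% fish oil on day 0, with vehicle controls. L. salmonis copepodid infestations around days −28, −3 and 17; lice counted by stage around day 28, efficacy as % reduction versus control by Abbott's formula.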

Lepeophtheirus salmonis [8] = test: Salmon - in vivo efficacy against sea lice using in-feed administration; conditions: for prophylactic efficacy against re-infestation: 1 mg/kg in feed for 7 days
Description: Commercial fish feed pellets were coated with formulated test compound. As formulation DMSO 5%/fish oil 95% was used. Salmon (Salmo solar) were treated orally with 1 mg/kg fish biomass via coated feed for 7 consecutive days. Salmon of the negative control groups received only feed coated with the excipients of the formulation.
Fish of the therapeutic groups were infested with Lepeophtheirus salmonis copepodids twice before treatment (around day −28 and day −3).
Fish of the prophylactic groups were infested at several time points after treatment in 2-week intervals. The fish were assessed for (pre-)adult sea lice approximately 3 weeks after each re-infestation. At each assessment, all (pre-)adult sea lice were removed from the fish. […] Efficacy is expressed as a % reduction of sea lice in treated groups versus a control group using the Abbott's formula.

[9] = In vitro test of rain fastness; type: physicochemical; conditions: 5% solution in Miglyol 840 on rabbit hide, 4 hours, then 30 minutes in water
Description: In addition to good absorbance, the composition according to the invention has a high resistance to water. After applying a 5% solution of Compound 453 in Miglyol 840 to rabbit hide and allowing to sit for 4 hours, the sample was soaked in water for 30 minutes.

[10] = 5 mg/kg subcutaneous, re-infested after 7 days
[11] = 5 mg/kg subcutaneous, re-infested after 14 days
[12] = 5 mg/kg subcutaneous, re-infested after 21 days
[13] = 5 mg/kg subcutaneous, re-infested after 28 days
[14] = 5 mg/kg subcutaneous, re-infested after 35 days
[15] = 5 mg/kg subcutaneous, therapeutic, Day 2
[16] = 5 mg/kg topical pour-on, re-infested after 7 days
[17] = 5 mg/kg topical pour-on, re-infested after 14 days
[18] = 5 mg/kg topical pour-on, re-infested after 21 days
[19] = 5 mg/kg topical pour-on, re-infested after 28 days
[20] = 5 mg/kg topical pour-on, re-infested after 35 days
[21] = 5 mg/kg topical pour-on, therapeutic, Day 2
[22] = 1 mg/kg fish biomass via coated feed for 7 consecutive days

| SMILES | efficacy ≥80 percent against Rhipicephalus appendiculatus [1, 10] | efficacy ≥80 percent against Rhipicephalus appendiculatus [1, 11] | efficacy ≥80 percent against Rhipicephalus appendiculatus [1, 12] | efficacy ≥80 percent against Rhipicephalus appendiculatus [1, 13] | efficacy ≥80 percent against Rhipicephalus appendiculatus [1, 14] | efficacy ≥80 percent against Rhipicephalus appendiculatus [1, 15] | efficacy ≥80 percent against Rhipicephalus appendiculatus [1, 16] | efficacy ≥80 percent against Rhipicephalus appendiculatus [1, 17] | efficacy ≥80 percent against Rhipicephalus appendiculatus [1, 18] | efficacy ≥80 percent against Rhipicephalus appendiculatus [1, 19] | efficacy ≥80 percent against Rhipicephalus appendiculatus [1, 20] | efficacy ≥80 percent against Rhipicephalus appendiculatus [1, 21] | effective in treating existing tick infestations [1] [%] | further results |
| --- | --- | --- | --- | --- | --- | --- | --- | --- | --- | --- | --- | --- | --- | --- |
| O=C(Nc1ccc(F)cc1F)c1cc(NC(=O)[C@H]2[C@H](c3ccc(F)c(Cl)c3)C2(Cl)Cl)ccc1Cl [Compound 197] | prophylactic efficacy | prophylactic efficacy | prophylactic efficacy | prophylactic efficacy | prophylactic efficacy | therapeutic efficacy | prophylactic efficacy | prophylactic efficacy | prophylactic efficacy | prophylactic efficacy | prophylactic efficacy | therapeutic efficacy | 100 | inhibition at 100 ppm [2]: 80%; LC50 ([3]; isolate resistant to Coumaphos, Flumethrin, Cypermethrin): 0.343 ppm; LC50 ([3]; isolate resistant to Coumaphos, Flumethrin, Cypermethrin, Amitraz): 0.375 ppm; LC50 ([3]; isolate resistant to DDT, Dieldrin, Coumaphos): 0.346 ppm; LC50 ([3]; isolate resistant to DDT, Dieldrin, Coumaphos, Chlorpyriphos): 0.335 ppm; LC50 ([3]; isolate resistant to Dieldrin, Coumaphos, Fluazuron): 0.270 ppm; LC50 ([3]; isolate: Fully susceptible): 0.288 ppm; inhibition at 25 µM [4]: ≥ 80%; inhibition at 49 µM [4]: 80%; inhibition at 388 µM [4]: 80%; inhibition at 100 ppm [4]: 80%; inhibition at 1000 ppm [5]: 80%; inhibition at 1 ppm [6]: 80% |
| O=C(Nc1ncc(F)cc1F)c1cc(NC(=O)[C@H]2[C@H](c3cc(Cl)cc(Cl)c3)C2(Cl)Cl)ccc1Cl [Compound 453] | prophylactic efficacy | prophylactic efficacy | prophylactic efficacy | prophylactic efficacy | prophylactic efficacy | therapeutic efficacy | prophylactic efficacy | prophylactic efficacy | prophylactic efficacy | prophylactic efficacy | prophylactic efficacy | therapeutic efficacy | 100 | prophylactic efficacy at re-infestation on Day 17 (% reduction vs control) (Lepeophtheirus salmonis [7]): 100%; therapeutic efficacy against (pre-)adult sea lice (Lepeophtheirus salmonis [8]; [22]): 100%; therapeutic efficacy against juvenile sea lice (Lepeophtheirus salmonis [8]; [22]): 100%; prophylactic efficacy against re-infestation (Lepeophtheirus salmonis [8]; re-infestation D14): 100%; prophylactic efficacy against re-infestation (Lepeophtheirus salmonis [8]; re-infestation D28): 99.9%; prophylactic efficacy against re-infestation (Lepeophtheirus salmonis [8]; re-infestation D42): 86.0%; presence of Compound 453 in the water [9]: below the detection limit; weight loss after soaking in water [9]: 4% |
